## C[C@H]1C/C=C/C(=O)O[C@@H](C)CC(=O)O[C@@H](C)C/C=C/C(=O)O1 [Example 1]
  melting point: 94 to 95 °C

From US20060030720A1, “Method for synthesizing macrosphelides” (priority 2002, published 2006)
